Entries after “also recorded” stand apart in the source; their conditions may differ. Ends that are not written are not given here.
How the values were obtained:
[1] = test system: mouse N2A neuroblastoma cells; test: Acute N2A neurite retraction induced by TBI patient 5-HT2A receptor autoantibodies; assay type: cell-based; details: for effect on TBI autoantibody-induced acute neurite retraction: M100907 250-500 nM, Y27632 10 μM, other concentrations as in Table 17; for % of autoantibody Neurite Retraction from TBI patients: 60 nM IgG of representative TBI patient
Protocol: Acute neurite retraction. Mouse N2A neuroblastoma cells were maintained in Dulbecco's minimal essential medium with 10% fetal calf serum. […] Neurite retraction represents average neurite length-shortening after five minutes exposure to TBI (5-HT2A receptor) autoantibodies (60-100 nM) in the presence or absence of various G-protein coupled receptor (GPCR) or signaling pathway antagonists.
A 60 nanomolar concentration of the IgG autoantibodies (e.g., 5-HT2A receptor autoantibodies) from a representative TBI patient was incubated with N2A cells in the presence or absence of the indicated concentration of the selective GPCR antagonist.
A 60 nanomolar concentration of 5-HT2A receptor autoantibodies from TBI patients was incubated with N2A cells in the presence or absence of the indicated concentration of Gq11/PLC-gamma/IP3R antagonist or RhoA/Rho kinase pathway inhibitor.
Neurovascular 5-hydroxytryptamine (serotonin) 2A receptor (5-HT2AR) autoantibodies were previously reported to function as long-acting agonists in diabetic angiopathy and subsets of major depression, Parkinson's disease or dementia. The 5-HT2A receptor is highly expressed in specific brain regions underlying cognition, perception and mood regulation. Long-lasting 5-HT2A receptor activation by circulating autoantibodies might contribute to pathophysiology via central and peripheral mechanisms. Since the risk or incidence of Parkinson's disease, depression and dementia increase following traumatic brain injury (TBI), circulating neurotoxic autoantibodies (e.g., 5HT2AR) were tested, characterized and compared with autoantibodies from TBI patients vs. diabetic subsets with or without neurodegenerative disorders. Plasma IgG autoantibodies (e.g., 5-HT2AR autoantibodies) were obtained by protein-A affinity chromatography in ten male TBI patients mean age 64 years old.

[2] = test system: N2A mouse neuroblastoma cells; test: N2A cell survival (MTT) promoted by schizophrenia/psychosis plasma autoantibodies; assay type: cell-based; details: M100907 500 nM; LY379268 5 μM; pertussis toxin 100 ng/mL; LY294002 20 μM; 24 hours
Protocol: (§1) Methods: Plasma from five older adults with chronic schizophrenia and eight age-matched patients having another neuropsychiatric, immune or metabolic disorder was subjected to Protein-A affinity chromatography to obtain IgG autoantibodies. Mean neurite retraction (5 minutes) or cell survival (24 hours) was determined in mouse N2A neuroblastoma cells incubated with autoantibodies in the presence or absence of specific antagonists of the Gq/11/PLC/IP3R signaling pathway, Gi-coupled, beta-arrestin2-directed pathways, or LY379268.
N2A cell survival. MTT assay was performed 24 hours after incubation with test substances (Zimering M B, J Endocrinol Diabetes. 2018; 5(2): 10).
Serotonin 2A receptor activation leads to f3-arrestin-2-mediated desensitization and receptor internalization. However, β-arrestin-2 can also couple with diverse signaling pathways leading to enhanced cell proliferation and/or survival promotion.

[3] = test system: N2A mouse neuroblastoma cells; test: Acute N2A neurite retraction induced by schizophrenia plasma autoantibodies; assay type: cell-based; details: for % AutoAB-induced neurite retraction: 20 nM Pt 1 schizophrenia AutoAB
Protocol: as §1
Acute neurite retraction assay. Percent of basal neurite length in N2A cells expressing one or more proximally-located dendrite-like process was determined after interval exposure to test substances (Zimering M B, J Endocrinol Diabetes. 2018; 5(2): 10).
A twenty nanomolar concentration of protein-A eluate fraction of plasma from Pt 1 with schizophrenia was incubated with N2A cells in the presence or absence of the indicated concentration of each Gq/11, GPCR antagonist. Results are the mean+/−SD of two experiments.
A forty nanomolar concentration of plasma autoantibodies (AutoAB) from Pt 1 or Pt, schizophrenia, was incubated in the presence or absence of the indicated concentration of RhoA/Rho kinase (ROCK) inhibitor, or individual antagonists of the Gq11/PLC/IP3R signaling pathway. […]

N2A cells [4] = test: N2A cell loss (MTT) induced by TBI patient autoantibodies; assay type: cell-based, mouse
Protocol: Cell survival was determined with MTT assay.
Mouse neuroblastoma cell loss. N2A cell loss was quantified using an MTT (3-(4,5-dimethylthiazol-2-yl)-2,5-diphenyltetrazolium bromide) tetrazolium reduction assay after overnight incubation with autoantibodies from TBI patients (Zimering M B, Endocrinol Diabetes Metab J. 2019 August; 3(4) pii: 118. Epub 2019 Aug. 14).

N2a neuroblastoma cells = test: N2a cell survival with ZDF rat plasma protein G eluate; assay type: cell-based, mouse; details: 1 μM antagonist; 1 μg/mL (10 nM) eluate; 24 hours
Protocol: Plasma was applied to a Protein G affinity chromatography column (which binds most subclasses or rat IgG autoantibodies), washed extensively and eluted in low pH (2.7) buffer. The resulting eluate was incubated with N2a neuroblastoma cells at 37 degrees C. for 24 hours.

[5] = Blood glucose in ZDF rats; assay type: in vivo, Zucker diabetic fatty (ZDF) rat
[6] = Observation of side effects and sedation in ZDF rats; assay type: in vivo, Zucker diabetic fatty (ZDF) rat
Protocol: Normally these rats will feed nearly continuously when given the opportunity. This sedating effect was reproducible following a second IP injection of 1 mg of the SEQ ID NO: 2 in each of the 3 ZDR rats. […] Serotonin plays a major role in wakefulness and arousal in the nervous system. It is possible that the administration of SEQ ID NO: 2 blocks the action of the neurotransmitter serotonin at multiple sites in the periphery and in the central nervous system, inducing sleep via antagonism of serotonin's role in wakefulness/arousal, independent of the pronounced blood pressure-lowering effect.

N2A cells [7] = test: Neurite retraction in N2A cells induced by 5-HT2AR agonists (DOI, serotonin); assay type: cell-based, mouse
From the text: The mGlu2/3R agonist LY379268 was previously reported to cause positive allosteric modulation of the 5HT2AR protomer affinity at 5HT2AR/mGlu2R heteromers (González-Maeso J, et al., Nature. 2008; 452(7183):93-97).

COc1cccc([C@H](O)C2CCN(CCc3ccc(F)cc3)CC2)c1OC [Peptide M100907]
prevention of mean neurite retraction in TBI patient 5-HT2AR autoantibodies ([1]; M100907 200-670 nM, n=10 TBI patients, retraction alone 52±10%): 89-91% | effect on TBI autoantibody-induced acute neurite retraction [1]: substantially prevented; also recorded: completely or nearly completed prevented | % of autoantibody Neurite Retraction from TBI patients ([1]; antagonist 250 nM): 0% | effect on autoantibody-induced N2A pro-survival/proliferation (words) [2]: significantly blocked | effect on LY379268-potentiated SCZ autoantibody-induced neurite retraction ([3]; M100907 500 nM): significantly prevented | effect on schizophrenia autoantibody-induced neurite retraction ([3]; M100907 two-hundred nanomolar, Y27632 ten micromolar, Y254890 one micromolar): completely prevented | % AutoAB-induced neurite retraction ([3]; antagonist 200 nM): 0 ± 0% | effect alone on N2A cell survival (N2A cells [4]; 250 nM-500 nM, without autoantibodies): no significant effect | effect on accelerated N2A cell death/loss by TBI autoantibodies (N2A cells [4]; M100907 250 nM (eight of eight patients), prazosin 850 nM (n=5), one-fiftieth dilution, 24 hours): substantially prevented; also recorded: nearly completely prevented | effect on accelerated neuroblastoma cell death induced by ZDF rat protein G eluate (N2a neuroblastoma cells): significantly reduced; also recorded: significant protection

O=C(CCCN1CCC2(CC1)C(=O)NCN2c1ccccc1)c1ccc(F)cc1 [Spiperone]
effect on TBI autoantibody-induced acute neurite retraction [1]: substantially blocked | % of autoantibody Neurite Retraction from TBI patients ([1]; antagonist 400 nM): 20% | % AutoAB-induced neurite retraction ([3]; antagonist 500 nM): 17 ± 6% | effect on accelerated neuroblastoma cell death induced by ZDF rat protein G eluate (N2a neuroblastoma cells): significantly reduced; also recorded: significant protection

SCLLADDN [Peptide 2]
effect of repeated peptide injections on blood glucose concentration [5]: no evidence that the peptide injections caused a significant increase in blood glucose concentration | vomiting or other side effects during and for 15 days after administration ([6]; ZDF rats, alternate daily 2 mg/kg IP): did not experience vomiting or any other side effects | side effects eighteen days after injection ([6]; three ZDF rats, approximately 1 mg single intraperitoneal injection): no untoward side effects were observed

COc1cc(CC(C)N)c(OC)cc1I (centres unmarked) [DOI, 1-[2,5-dimethoxy-4-iodophenyl]-2-aminopropane]
concentration of DOI needed to evoke 25-30% neurite inhibition (N2A cells [7]; in the absence of LY379268): 10 µM | concentration of DOI needed to evoke 25-30% neurite inhibition (N2A cells [7]; in the presence of (10 μM) LY379268): 5 µM | peak neurite retraction (N2A cells [7]; saturating concentration, 20 μM): 40%

Source: US11306122B2, “Compositions and methods of inhibiting the binding of plasma IgG autoantibodies to serotonin 2A receptor” (United States Government As Represented By The Department …, priority 2019, dated 2022)
